Measurements from ChEMBL document CHEMBL3228021, “Studies on analgesic agents. 1.1a Preparation of 1,2-diphenyl-2-(4-substituted 1-piperazinyl)ethanol derivatives and structure-activity relationships” (J Med Chem, 1979).

Legend:
Mus musculus [1] = experiment: Analgesic activity in sc dosed ddN mouse assessed as inhibition of light radiation-induced thermal pain by D'Amour-Smith method; type: functional
Mus musculus [2] = experiment: Analgesic activity in po dosed ddN mouse assessed as inhibition of phenylquinone-induced writhing; type: functional
Mus musculus [3] = experiment: Toxicity in sc dosed ddN mouse light radiation-induced thermal pain model; type: organism-based; settings: in vivo
Mus musculus [4] = organism: Mus musculus; experiment: Toxicity in mouse assessed as induction of physical dependence liability by jumping test; type: organism-based; settings: in vivo
Rattus norvegicus [5] = organism: Rattus norvegicus; experiment: Toxicity in morphine-dependent rat assessed as induction of physical dependence liability by substitution test; type: organism-based; settings: in vivo
Rattus norvegicus [6] = experiment: Analgesic activity in po dosed Wistar rat assessed as inhibition of tail pressing-induced mechanical pain by Haffner method; type: functional
[7] = Acute lethal toxicity in sc dosed mouse measured after 1 week; type: organism-based; settings: in vivo
Rhesus monkey = experiment: Toxicity in morphine-dependent monkey assessed as induction of physical dependence liability by single dose suppression test; type: organism-based, Macaca mulatta; settings: in vivo
[8] = Acute lethal toxicity in sc dosed rat measured after 1 week; type: organism-based; settings: in vivo
Mus musculus [9] = experiment: Analgesic activity in po dosed ddN mouse assessed as inhibition of light radiation-induced thermal pain by D'Amour-Smith method; type: functional
[10] = Acute lethal toxicity in po dosed mouse measured after 1 week; type: organism-based; settings: in vivo
[11] = Acute lethal toxicity in po dosed rat measured after 1 week; type: organism-based; settings: in vivo
[12] = Toxicity in po dosed Wistar rat tail pressing-induced mechanical pain model; type: organism-based; settings: in vivo
[13] = Mus musculus, ddN, sc, read-out: ED50

COc1ccc(CN2CCN([C@H](c3ccccc3)[C@H](O)c3ccccc3)CC2)cc1
ED50 (Mus musculus [1]; [13]): 40.1 mg/kg

COc1ccc(CN2CCN([C@@H](c3ccccc3)[C@@H](O)c3ccccc3)CC2)cc1
ED50 (Mus musculus [1]; [13]): 13.5 mg/kg

COc1ccc(CN2CCN([C@H](c3ccccc3Cl)[C@H](O)c3ccccc3)CC2)cc1.Cl
ED50 (Mus musculus [1]; [13]): 58.4 mg/kg

COc1ccc(CN2CCN([C@@H](c3ccccc3Cl)[C@@H](O)c3ccccc3)CC2)cc1.Cl
ED50 (Mus musculus [1]; [13]): > 160 mg/kg

COc1ccc(CN2CCN(C(c3ccccc3)C(O)c3ccccc3)CC2)cc1 (racemic)
ED50 (Mus musculus [2]): 31.1 mg/kg | ED50 (Mus musculus [1]; [13]): > 160 mg/kg | ED50 (Mus musculus [3]): 15.2 mg/kg

Cc1ccc(CN2CCN(C(c3ccccc3)C(O)c3ccccc3)CC2)cc1.Cl.O (racemic)
ED50 (Mus musculus [2]): 43.7 mg/kg | ED50 (Mus musculus [1]; [13]): > 160 mg/kg

Cl.O=[N+]([O-])c1ccc(CN2CCN(C(c3ccccc3)C(O)c3ccccc3)CC2)cc1 (racemic)
ED50 (Mus musculus [2]): 40 mg/kg | ED50 (Mus musculus [1]; [13]): > 160 mg/kg

CCOc1ccc(CN2CCN(C(c3ccccc3Cl)C(O)c3ccccc3)CC2)cc1.Cl (racemic)
ED50 (Mus musculus [1]; [13]): > 160 mg/kg

Cl.OC(c1ccccc1)C(c1ccccc1Cl)N1CCN(Cc2ccc(OCc3ccccc3)cc2)CC1 (racemic)
ED50 (Mus musculus [1]; [13]): > 160 mg/kg

COc1ccccc1CN1CCN(C(c2ccccc2)C(O)c2ccccc2)CC1.Cl.O (racemic)
ED50 (Mus musculus [1]; [13]): > 160 mg/kg

COc1ccccc1CN1CCN(C(c2ccccc2Cl)C(O)c2ccccc2)CC1.Cl.O (racemic)
ED50 (Mus musculus [1]; [13]): > 160 mg/kg

COc1cccc(CN2CCN(C(c3ccccc3Cl)C(O)c3ccccc3)CC2)c1.Cl (racemic)
ED50 (Mus musculus [1]; [13]): > 160 mg/kg

COc1cccc(CN2CCN(C(c3ccccc3C)C(O)c3ccccc3)CC2)c1.Cl.O (racemic)
ED50 (Mus musculus [1]; [13]): > 160 mg/kg

COc1ccc(CN2CCN(C(c3ccccc3Cl)C(O)c3ccccc3)CC2)cc1OC.Cl (racemic)
ED50 (Mus musculus [1]; [13]): > 160 mg/kg

Cl.OC(c1ccccc1)C(c1ccccc1Cl)N1CCN(Cc2ccc3c(c2)OCO3)CC1 (racemic)
ED50 (Mus musculus [1]; [13]): > 160 mg/kg

COc1cc(CN2CCN(C(c3ccccc3Cl)C(O)c3ccccc3)CC2)cc(OC)c1OC.Cl.O (racemic)
ED50 (Mus musculus [1]; [13]): > 160 mg/kg

COc1ccc(CN2CCN(C(c3ccccc3)C(O)c3ccccc3OC)CC2)cc1.Cl (racemic)
ED50 (Mus musculus [1]; [13]): > 160 mg/kg

COc1ccc(CN2CCN(C(c3ccccc3)C(O)c3ccc(OC)cc3)CC2)cc1.Cl.O (racemic)
ED50 (Mus musculus [1]; [13]): > 160 mg/kg

COc1ccc(CN2CCN(C(c3ccccc3)C(O)c3ccccc3Cl)CC2)cc1.Cl (racemic)
ED50 (Mus musculus [1]; [13]): > 160 mg/kg

COc1ccc(CN2CCN(C(c3ccccc3)C(O)c3cccc(Cl)c3)CC2)cc1.Cl.O (racemic)
ED50 (Mus musculus [1]; [13]): > 160 mg/kg

COc1ccc(CN2CCN(C(c3ccccc3)C(O)c3ccc(Cl)cc3)CC2)cc1.Cl (racemic)
ED50 (Mus musculus [1]; [13]): > 160 mg/kg

COc1ccc(CN2CCN(C(c3ccccc3)C(O)c3ccccc3C)CC2)cc1.Cl (racemic)
ED50 (Mus musculus [2]): 100 mg/kg | ED50 (Mus musculus [1]; [13]): 120 mg/kg

COc1ccc(CN2CCN(C(c3ccccc3)C(O)c3cccc(C)c3)CC2)cc1.Cl (racemic)
ED50 (Mus musculus [2]): 18.5 mg/kg | ED50 (Mus musculus [1]; [13]): 26.4 mg/kg

COc1ccc(CN2CCN(C(c3ccccc3)C(O)c3ccc(C)cc3)CC2)cc1.Cl (racemic)
ED50 (Mus musculus [2]): 85.9 mg/kg | ED50 (Mus musculus [1]; [13]): 31.7 mg/kg

COc1ccc(CN2CCN(C(c3ccccc3)C(O)c3ccc(O)cc3)CC2)cc1.Cl (racemic)
ED50 (Mus musculus [1]; [13]): > 160 mg/kg

COc1ccc(CN2CCN(C(c3ccccc3OC)C(O)c3ccccc3)CC2)cc1.Cl (racemic)
Activity (Mus musculus [4]): Non-toxic | Activity (Rattus norvegicus [5]): Non-toxic

COc1ccc(CN2CCN(C(c3cccc(OC)c3)C(O)c3ccccc3)CC2)cc1.Cl (racemic)
ED50 (Mus musculus [1]; [13]): > 160 mg/kg

COc1ccc(CN2CCN(C(c3ccc(OC)cc3)C(O)c3ccccc3)CC2)cc1.Cl (racemic)
ED50 (Mus musculus [2]): 24.1 mg/kg | ED50 (Mus musculus [1]; [13]): 37.4 mg/kg

COc1ccc(CN2CCN(C(c3cccc(Cl)c3)C(O)c3ccccc3)CC2)cc1.Cl (racemic)
ED50 (Mus musculus [2]): 27.2 mg/kg | ED50 (Mus musculus [1]; [13]): 48.1 mg/kg

COc1ccc(CN2CCN(C(c3ccc(Cl)cc3)C(O)c3ccccc3)CC2)cc1.Cl (racemic)
ED50 (Mus musculus [2]): 16.4 mg/kg | ED50 (Mus musculus [1]; [13]): 39.7 mg/kg

COc1ccc(CN2CCN(C(c3cccc(C)c3)C(O)c3ccccc3)CC2)cc1.Cl (racemic)
ED50 (Mus musculus [2]): 27.7 mg/kg | ED50 (Mus musculus [1]; [13]): 28 mg/kg

COc1ccc(CN2CCN(C(c3ccc(C)cc3)C(O)c3ccccc3)CC2)cc1.Cl (racemic)
ED50 (Mus musculus [2]): 16.8 mg/kg | ED50 (Mus musculus [1]; [13]): 14.1 mg/kg

COc1ccc(CN2CCN(C(c3ccc([N+](=O)[O-])cc3)C(O)c3ccccc3)CC2)cc1.Cl (racemic)
ED50 (Mus musculus [2]): 10.2 mg/kg | ED50 (Mus musculus [1]): 8.11 mg/kg

COc1ccc(CN2CCN(C(c3ccccc3Cl)C(O)c3ccc(C)cc3)CC2)cc1.Cl (racemic)
ED50 (Mus musculus [1]; [13]): > 160 mg/kg

COc1ccc(CN2CCN(C(c3ccc(Cl)cc3)C(O)c3ccc(C)cc3)CC2)cc1.Cl (racemic)
ED50 (Mus musculus [1]; [13]): > 160 mg/kg

COc1ccc(CN2CCN(C(c3ccccc3OC)C(O)c3ccc(C)cc3)CC2)cc1.Cl (racemic)
ED50 (Mus musculus [1]; [13]): > 160 mg/kg

COc1ccc(CN2CCN(C(c3ccccc3)C(OC(C)=O)c3ccccc3)CC2)cc1.Cl (racemic)
ED50 (Mus musculus [2]): 46.3 mg/kg | ED50 (Mus musculus [1]; [13]): 80 mg/kg

CCC(=O)OC(c1ccccc1)C(c1ccccc1)N1CCN(Cc2ccc(OC)cc2)CC1.Cl (racemic)
ED50 (Mus musculus [2]): 44.3 mg/kg | ED50 (Mus musculus [1]; [13]): 73.1 mg/kg

CCC(=O)OC(c1ccccc1)C(c1ccccc1Cl)N1CCN(Cc2ccc(OC)cc2)CC1.Cl (racemic)
ED50 (Mus musculus [2]): 90 mg/kg | ED50 (Mus musculus [1]; [13]): > 160 mg/kg

OC(c1ccccc1)C(c1ccccc1)N1CCN(c2ccccc2Cl)CC1 (racemic)
ED50 (Mus musculus [1]; [13]): > 160 mg/kg

COc1ccccc1N1CCN(C(c2ccccc2)C(O)c2ccccc2)CC1 (racemic)
ED50 (Mus musculus [1]; [13]): > 160 mg/kg

OC(c1ccccc1)C(c1ccccc1)N1CCN(c2ccccn2)CC1 (racemic)
ED50 (Mus musculus [1]; [13]): > 160 mg/kg

Cl.OC(c1ccccc1)C(c1ccccc1)N1CCN(C2CCCCC2)CC1 (racemic)
ED50 (Mus musculus [3]): > 80 mg/kg

Cl.OC(c1ccccc1)C(c1ccccc1)N1CCN(Cc2ccccc2)CC1 (racemic)
ED50 (Mus musculus [2]): 20.6 mg/kg | ED50 (Mus musculus [1]; [13]): > 160 mg/kg

OC(c1ccccc1)C(c1ccccc1)N1CCN(CCc2ccccc2)CC1 (racemic)
ED50 (Mus musculus [1]; [13]): > 160 mg/kg

COc1ccc(CN2CCN(C(c3ccccc3Cl)C(O)c3ccccc3)CC2)cc1.Cl (racemic; 38)
ED50 (Rattus norvegicus [6]): 228 mg/kg | LD50 at 168 h [7]: 431 mg/kg | ED50 (Mus musculus [2]): 20.9 mg/kg | Activity (Mus musculus [4]): Non-toxic | Activity (Rhesus monkey): Non-toxic | LD50 at 168 h [8]: 584 mg/kg | ED50 (Mus musculus [1]): 79 mg/kg | ED50 (Mus musculus [9]): 165 mg/kg | LD50 at 168 h [10]: 509 mg/kg | LD50 at 168 h [11]: > 3200 mg/kg | Activity (Rattus norvegicus [5]): Non-toxic

COc1ccc(CN2CCN(C(c3ccccc3C)C(O)c3ccccc3)CC2)cc1.Cl (racemic; 41)
Activity (Mus musculus [4]): Non-toxic | ED50 (Mus musculus [1]): 65.2 mg/kg | Activity (Rattus norvegicus [5]): Non-toxic

COc1ccc(CN2CCN(C(c3ccccc3Cl)C(O)c3ccccc3)CC2)cc1.Cl (racemic; 53)
ED50 (Mus musculus [1]): >160 mg/kg

COc1ccc(CN2CCN(C(c3ccccc3C)C(O)c3ccccc3)CC2)cc1.Cl (racemic; 54)
ED50 (Mus musculus [1]): >160 mg/kg

COc1ccc(CN2CCN(C(c3ccc([N+](=O)[O-])cc3)C(O)c3ccccc3)CC2)cc1.Cl (stereo in doubt; 55)
ED50 (Mus musculus [1]): >160 mg/kg

Cc1c(N(C)C)c(=O)n(-c2ccccc2)n1C [AMINOPYRINE]
LD50 at 168 h [7]: 385 mg/kg | LD50 [12]: > 2560 mg/kg | LD50 at 168 h [8]: 511 mg/kg | ED50 (Mus musculus [3]): > 640 mg/kg | LD50 at 168 h [10]: 523 mg/kg | LD50 at 168 h [11]: > 2000 mg/kg

COc1ccc2c3c1O[C@H]1[C@@H](O)C=C[C@H]4[C@@H](C2)N(C)CC[C@@]341.COc1ccc2c3c1O[C@H]1[C@@H](O)C=C[C@H]4[C@@H](C2)N(C)CC[C@@]341.O.O=P(O)(O)O.O=P(O)(O)O [CODEINE PHOSPHATE]
ED50 (Rattus norvegicus [6]): 196 mg/kg | LD50 at 168 h [7]: 271 mg/kg | ED50 (Mus musculus [2]): 8.21 mg/kg | LD50 at 168 h [8]: 365 mg/kg | ED50 (Mus musculus [1]; [13]): 28.1 mg/kg | ED50 (Mus musculus [9]): 98.4 mg/kg | LD50 at 168 h [10]: 574 mg/kg | LD50 at 168 h [11]: 1180 mg/kg
